{"source": "patent US20150073330A1", "about": "“ALZHEIMER'S DISEASE TREATMENT WITH MULTIPLE THERAPEUTIC AGENTS DELIVERED TO THE OLFACTORY REGION THROUGH A SPECIAL DELIVERY CATHETER AND IONTOPHORESIS” (Wedge Therapeutics, LLC, priority 2012, published 2015)", "key": {"[1]": {"settings": "cited from earlier work"}, "[2]": {"system": "patients with depression associated with neurodegenerative diseases", "test": "Intranasal ORE ketamine in patients with depression"}, "[3]": {"settings": "in vivo; cited from earlier work"}, "[4]": {"system": "adults with AD and amnestic mild cognitive impairment", "settings": "cited from earlier work"}, "[5]": {"system": "MCF-7 Human Breast Cancer Cells", "settings": "MCF-7 cells; cited from earlier work"}, "[6]": {"system": "students taking the comprehensive examination and test", "test": "ORE insulin in students before the comprehensive examination", "type": "in vivo, human", "settings": "2-4 IU each side of the nose to the ORE, 1-2 hours before the examination, compared to controls", "experimental": "In a study of students taking the comprehensive examination and test, we prescribed 2-4 IU insulin instilled on each sides of the nose delivered to the ORE in supine position, 1-2 hours before the examination using our delivery device. […] We are planning an expanded study and to analyze statistically to report its positive significance and its use in public speakers (T. R. Shantha, use of olfactory mucosal insulin to enhance the memory and recall before student examinations, written tests and before presentations in front of audience at meetings. Expanded study-under preparation.)."}, "[7]": {"system": "receptors in the hippocampus and the frontal cortex", "settings": "rodent models, intranasal; cited from earlier work"}, "[8]": {"settings": "cited from earlier work", "remark": "listed apart in the source"}, "[9]": {"system": "patients with impaired cognition, depression, PTSD, stroke, concussion, brain injury", "test": "ORE delivery of insulin alone or combined in impaired cognition, depression, PTSD, stroke, concussion and brain injury", "type": "in vivo, human", "settings": "olfactory mucosal delivery; declining memory in the aged, Parkinson's, depression of many causes", "from_the_text": "We also provided the home therapy kit with these therapeutic agents and trained them in the method of delivery to ORE, so that they can administer on their own. Some of the patients received hyperbaric oxygen therapy also."}, "TNF-alpha [10]": {"target": "T1, TNF-alpha (Homo sapiens, UniProt P01375)", "T1 construct": "endogenous in cells; host or cells: AD patients (in vivo)", "T1 sequence (P01375 77-233 limits assumed)": "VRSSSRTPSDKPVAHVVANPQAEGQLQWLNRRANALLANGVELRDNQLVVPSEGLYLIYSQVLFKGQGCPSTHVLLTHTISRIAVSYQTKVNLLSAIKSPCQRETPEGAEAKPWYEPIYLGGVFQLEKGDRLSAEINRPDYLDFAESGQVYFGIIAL", "test": "Etanercept administration in AD patients by different routes", "type": "in vivo", "settings": "compared to perispinal, epispinal or interspinal routes", "description": "CNS Drugs 2009; 23 (9): 713-725. Richard C. Chou, Michael A. Kane, Shiva Gautam and Sanjay Ghirmire. Tumor Necrosis Factor Inhibition Reduces the Incidence of Alzheimer's disease in Rheumatoid Arthritis Patients. Abstracts of the American College of Rheumatology, Nov. 8, 2010, Atlanta Ga., Presentation No. 640). […] It is transported to the CNS through the CSF, not by direct spread by cervical vertebral venous system as perceived (Shantha T R and Evans J A: Arachnoid Villi in the Spinal Cord, and Their Relationship to Epidural Anesthesia. Anesthesiology 37:543-557, 1972)."}, "TNF-alpha [11]": {"target": "T1, TNF-alpha", "settings": "AD patients; cited from earlier work"}, "[12]": {"system": "patients with Lyme disease, senile type dementia and early Alzheimer's disease", "test": "2-4-dinitrophenol in Lyme disease, senile type dementia and early Alzheimer's disease", "type": "in vivo, human", "settings": "minuscule dose", "description": "Exactly how production and aggregation of the beta amyloid peptide gives rise to the pathology of AD even now not known. Accumulation of aggregated amyloid fibrils, which are believed to be the toxic form of the protein responsible for disrupting the cell's calcium ion homeostasis, induces programmed cell death (apoptosis). It known that Aβ selectively builds up in the mitochondria in the cells of Alzheimer's-affected brains, and it inhibits certain enzyme functions and the utilization of glucose by neurons (Chen X, Yan S D. 2006. “Mitochondrial Aβ: a potential cause of metabolic dysfunction in Alzheimer's disease”. IUBMB Life 58 (12): 686-94.). […] We had to discontinue the study due to federal restriction on such use that is not FDA approved."}, "[13]": {"settings": "cutaneous T-cell lymphoma, 300-400 mg per m^2 per day for eight weeks; cited from earlier work"}, "amyloid beta": {"system": "amyloid beta", "settings": "mice, cited from earlier work"}}, "note": "Entries after “also recorded” stand apart in the source; their conditions may differ."}
{"compound": "CNC(=O)Oc1ccc2c(c1)[C@]1(C)CCN(C)[C@@H]1N2C", "note": "[Physostigmine Salicylate]", "values": [{"measurement": "pH of aqueous solution", "setting": "[1]; 0.5% aqueous solution", "result": 5.8}, {"measurement": "solubility in water", "setting": "[1]", "result": "soluble in water"}]}
{"compound": "CNC1(c2ccccc2Cl)CCCCC1=O", "note": "(stereo not shown) [ketamine]", "values": [{"measurement": "depressive condition in early cases", "setting": "[2]; early cases, especially in dementia", "result": "completely ameliorated the depressive condition"}, {"measurement": "depression", "setting": "[2]; intranasal delivery to the olfactory mucosa, neurodegenerative diseases, cancer, senility, Lyme disease and others", "result": "reduced or relieved the depression"}, {"measurement": "hallucinogenic or other ill effect", "setting": "[2]; micro doses, 500 micrograms through the ORE", "result": "no hallucinogenic or other ill effect; also recorded: no hallucinogenic effect"}, {"measurement": "pH of the sterile solution for injection", "setting": "[1]; equivalent of 50 mg ketamine base per milliliter", "result": "3.5 to 5.5"}, {"measurement": "crossing of the blood brain barrier", "setting": "[3]", "result": "easily crosses the BBB"}]}
{"compound": "insulin", "values": [{"measurement": "story recall and functional status", "setting": "[4]; 3-week daily intranasal insulin, adults with AD and aMCI", "result": "improved delayed story recall and caregiver-rated functional status"}, {"measurement": "memory, attention and functioning", "setting": "[4]; 21 days olfactory mucosal insulin, early stage AD or mild cognitive impairment, vs placebo", "result": "enhanced memory, attention, and functioning compared with placebo"}, {"measurement": "enhancement of the activity of methotrexate", "setting": "[5]", "result": "10,000 times"}, {"measurement": "recall from memory during the test", "setting": "[6]", "result": "better and more rapid recall from memory"}, {"measurement": "test scores", "setting": "[6]", "result": "scored higher in test scores"}, {"measurement": "time to binding to receptors in the hippocampus and the frontal cortex", "setting": "[7]", "result": "≤ 60", "unit": "min"}, {"measurement": "time to increased insulin levels in cerebrospinal fluid (CSF)", "setting": "[8]; human studies, olfactory mucosal intranasal", "result": "≤ 60", "unit": "min"}, {"measurement": "effect on blood glucose", "setting": "[8]; normal adults and patients with Alzheimer's disease", "result": "without altering blood glucose"}, {"measurement": "depression, memory and cognition", "setting": "[9]", "result": "reduced the depression, improved the memory, and increased cognition"}]}
{"compound": "N[C@@H](Cc1ccc(O)c(O)c1)C(=O)O", "note": "[levodopa]", "values": [{"measurement": "share that crosses BBB", "setting": "[3]", "result": "5-10%"}]}
{"compound": "CNC(=O)Oc1ccc2c(c1)[C@]1(C)CCN(C)[C@@H]1N2C", "note": "[physostigmine]", "values": [{"measurement": "crossing of the blood brain barrier", "setting": "[3]", "result": "can cross the blood-brain barrier"}]}
{"compound": "Etanercept", "values": [{"measurement": "effectiveness of cervical epidural and intranasal ORE delivery", "setting": "TNF-alpha [10]", "result": "much more effective"}, {"measurement": "cognitive abilities after perispinal administration", "setting": "TNF-alpha [11]", "result": "improve the cognitive abilities of AD patients"}]}
{"compound": "O=[N+]([O-])c1ccc(O)c([N+](=O)[O-])c1", "note": "[2-4-dinitrophenol]", "values": [{"measurement": "complications", "setting": "[12]", "result": "without a single complication"}, {"measurement": "pathological changes, memory and cognition", "setting": "[12]; unpublished data 2004", "result": "reduces these pathological changes and improves the memory and cognition"}]}
{"compound": "C=C(c1ccc(C(=O)O)cc1)c1cc2c(cc1C)C(C)(C)CCC2(C)C", "note": "[bexarotene]", "values": [{"measurement": "adverse effects of high dose usage", "setting": "[13]", "result": "hypertriglyceridemia, hypercholesterolemia and decreased high-density lipoprotein levels, as well as hypothyroidism"}, {"measurement": "ability to sense and respond to odors", "setting": "amyloid beta; after bexarotene treatment", "result": "improvement in the ability to sense and respond to odors"}, {"measurement": "nest making behavior", "setting": "amyloid beta; by 72 hours after the bexarotene treatment", "result": "began to use paper to make nests"}]}
